Measurements reported in paper PMC3871601, “Potential Cooperations between Odorant-Binding Proteins of the Scarab Beetle Holotrichia oblita Faldermann (Coleoptera: Scarabaeidae)” (PLoS ONE, 2013).
Where two headings read alike, the source gives them in different places.

What was measured:
HoblOBP3 [1] = molecular target: T1, HoblOBP3 (Holotrichia oblita, UniProt G9BWQ7); assay: biochemical; assay type: binding
Method: (§1) N-phenyl-1-naphthylamine (1-NPN) was selected as a probe to measure the affinity of the 1-NPN fluorescent ligand to proteins. A 1-cm light path quartz cuvette was used, and the fluorescence spectra were recorded on a Lengguang 970 CRT spectrofluorimeter (Shanghai Jingmi, China) at room temperature in a right angle configuration. The parameter selection was such that the slit widths for both excitation and emission were 10 nm. 1-NPN was excited at 337 nm and the emission spectra were recorded between 350 and 550 nm. Spectra were recorded using high-speed scanning.
(§2) The 2 µM protein solution was dissolved in 50 mM Tris-HCl buffer with pH 7.4, and the ligands were dissolved in chromatographically pure methanol as a 1 mM stock solution. 1-NPN was dissolved in chromatographically pure methanol as a 1 mM stock solution.
(§3) To determine the dissociation constants, the intensity values corresponding to the maximum fluorescence emission were plotted against free ligand concentrations. Assuming that the protein was 100% active and that the stoichiometric ratio between the protein and ligand was 1:1 at saturation, the bound ligand was determined from the fluorescence intensity values. The curves were then linearized using Scatchard plots. The K1-NPN values were estimated using GraphPad Prism 5 Software by nonlinear regression for a unique binding site. The dissociation constants of the competitors (Ki) were calculated from the corresponding IC50 values using the following equation: Ki = [IC50]/1+[1-NPN]/K1-NPN. […] [1-NPN] represented the free concentration of 1-NPN, and K1-NPN represented the dissociation constant of the complex protein/1-NPN [76].

HoblOBP4 [2] = molecular target: T2, HoblOBP4 (Holotrichia oblita, UniProt G9BWQ8); assay: biochemical; assay type: binding; conditions: for Affinity (in words): HoblOBP4 alone
T2 sequence (G9BWQ8 entry or part of it): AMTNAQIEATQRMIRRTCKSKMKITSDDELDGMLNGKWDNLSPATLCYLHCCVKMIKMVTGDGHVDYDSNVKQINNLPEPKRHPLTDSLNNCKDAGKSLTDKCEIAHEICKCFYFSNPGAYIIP
Method: as §1, §2, §3

[3] = system: HoblOBP1 and HoblOBP2 mixtures; assay: Competitive binding assay with binary protein mixture OBP1-OBP2; parameters: species or system Holotrichia oblita; conditions: HoblOBP1 and HoblOBP2 equimolar mixture and 1-NPN 2 µM, ligand 4–40 µM; compared to either protein alone
Method: (§4) It is well known that the concentration of OBPs (also likely CSPs) in the sensillum lymph of the insect is extremely high (reportedly 10 mM). A hypothesis has been proposed that OBPs (or CSPs) homodimers or heterodimers might form. Thus, all binary potential intersections with four HoblOBPs and two HoblCSPs were tested in competitive binding assays to determine the existence of dimers. These experiments assumed that the protein was 100% active, a stoichiometric ratio between the protein and ligand was 1:1 at saturation and the two proteins were present in equimolar amounts. The binding curves and Scatchard plots of OBP3 and OBP4 mixture or CSP1 and CSP2 mixture were consistent with the functions of the individual proteins. However, the binding curve of the OBP2 and OBP4 mixture or OBP1 and OBP2 mixture presented a different tendency from those obtained with the individual proteins. […] Thus, we speculated that the decreased binding velocity was the main cause underlying this phenomenon. […] Such binding of the OBP2 and OBP4 mixture or OBP1 and OBP2 mixture in H. oblita was consistent with the OBP1 and OBP4 mixture in A. gambiae. In particular, some experiments also indicated interactions between OBP1 and OBP4 in A. gambiae. Thus, the hypothesis on a potential interaction between OBP2 and OBP4 (or OBP1 and OBP2) in H. oblita was proposed.
(§5) Figure 8 Competitive binding curves of representative ligands to binary protein mixtures OBP2-OBP4 and OBP1-OBP2 in H. oblita. The chemical structures of the ligands are shown on the right. A mixture of the proteins (equimolar amounts) and 1-NPN with both concentration of 2 µM in Tris-buffer was titrated with 1 mM solution of each competing ligand to final concentrations of 4–40 µM.
(§6) The 2 µM protein solution was dissolved in 50 mM Tris-HCl buffer with pH 7.4, and the ligands were dissolved in chromatographically pure methanol as a 1 mM stock solution. 1-NPN was dissolved in chromatographically pure methanol as a 1 mM stock solution. The protein solution was titrated to measure the protein’s affinity for the probe by adding aliquots of 1-NPN stock solution to final concentrations of 2 to 20µM.

HoblOBP2 = system: HoblOBP2; parameters: method as in PMID 21852709; conditions: HoblOBP2 alone; ref [13]; cited from earlier work
HoblOBP1 = system: HoblOBP1; parameters: method as in PMID 21852709; conditions: HoblOBP1 alone; ref [13]; cited from earlier work
HoblOBP3 [4] = molecular target: T1, HoblOBP3; assay: Binding curve of 1-NPN and Scatchard plot, HoblOBP3; conditions: HoblOBP3 2 µM in Tris-buffer, 1-NPN 2–20 µM; read-out: Dissociation constant of 1-NPN
Method: as §1, with “scanning. Several types of compounds purchased from Sigma-Aldrich (Chemie Gmbh, Steinheim, Germany) were identified in the binding assays, and their purities were > 97% (Table 1). […]” for “scanning.”
(§7) To determine the dissociation constants, the intensity values corresponding to the maximum fluorescence emission were plotted against free ligand concentrations. Assuming that the protein was 100% active and that the stoichiometric ratio between the protein and ligand was 1:1 at saturation, the bound ligand was determined from the fluorescence intensity values. […] The dissociation constants of the competitors (Ki) were calculated from the corresponding IC50 values using the following equation: Ki = [IC50]/1+[1-NPN]/K1-NPN. […]

HoblOBP4 [5] = molecular target: T2, HoblOBP4; assay: Binding curve of 1-NPN and Scatchard plot, HoblOBP4; conditions: HoblOBP4 2 µM in Tris-buffer, 1-NPN 2–20 µM; read-out: Dissociation constant of 1-NPN
Method: as §1, with “scanning. Several types of compounds purchased from Sigma-Aldrich (Chemie Gmbh, Steinheim, Germany) were identified in the binding assays, and their purities were > 97% (Table 1). […]” for “scanning.”
as §7

[6] = system: HoblOBP2 and HoblOBP4 mixtures; assay: Competitive binding assay with binary protein mixture OBP2-OBP4; parameters: species or system Holotrichia oblita; conditions: HoblOBP2 and HoblOBP4 equimolar mixture and 1-NPN 2 µM, ligand 4–40 µM
Method: as §4, §5, §6

[7] = HoblOBP3, dash = IC50 exceeded 50 µM, read-out: IC50 (dash)
[8] = HoblOBP3, dash = ligand whose IC50 exceeded 50 µM, Ki not given, read-out: Ki (dash)
[9] = pH 7.4, HoblOBP3, at the ligand concentration 24 µM, protein and 1-NPN both 2 µM, read-out: Int (fluorescence intensity as percent of the initial fluorescence)
[10] = HoblOBP4, dash = IC50 exceeded 50 µM, read-out: IC50 (dash)
[11] = HoblOBP4, dash = ligand whose IC50 exceeded 50 µM, Ki not given, read-out: Ki (dash)
[12] = pH 7.4, HoblOBP4, at the ligand concentration 24 µM, protein and 1-NPN both 2 µM, read-out: Int (fluorescence intensity as percent of the initial fluorescence)
[13] = pH 7.4, read-out: Int (fluorescence intensity as percent of the initial fluorescence)

T1 sequence (G9BWQ7 entry or part of it): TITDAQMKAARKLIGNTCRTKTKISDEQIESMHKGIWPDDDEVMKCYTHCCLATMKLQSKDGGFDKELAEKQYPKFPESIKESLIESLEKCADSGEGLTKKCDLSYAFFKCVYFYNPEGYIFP

| SMILES | IC50 (HoblOBP3 [1]; [7]) [µM] | Ki (HoblOBP3 [1]; [8]) [µM] | activity at 24 µM (HoblOBP3 [1]; [9]) [%] | IC50 (HoblOBP4 [2]; [10]) [µM] | Ki (HoblOBP4 [2]; [11]) [µM] | activity at 24 µM (HoblOBP4 [2]; [12]) [%] | Affinity (in words) [3] | Affinity (in words) (HoblOBP2) | Affinity (in words) (HoblOBP1) | Kd (HoblOBP3 [4]) [µM] | Kd (HoblOBP4 [5]) [µM] | IC50 (HoblOBP3 [1]) [µM] | Ki (HoblOBP3 [1]) [µM] | activity at 24 µM (HoblOBP3 [1]; [13]) [%] | IC50 (HoblOBP4 [2]) [µM] | Ki (HoblOBP4 [2]) [µM] | Affinity (in words) (HoblOBP4 [2]) | activity at 24 µM (HoblOBP4 [2]; [13]) [%] | Affinity (in words) [6] |
| --- | --- | --- | --- | --- | --- | --- | --- | --- | --- | --- | --- | --- | --- | --- | --- | --- | --- | --- | --- |
| CCCCCCC=O [1-Heptanal] | > 50 | > 50 | 65 | > 50 | > 50 | 64 | enhanced affinity | low-afﬁnity or non-afﬁnity | low-afﬁnity or non-afﬁnity | – | – | – | – | – | – | – | – | – | – |
| c1ccc(Nc2cccc3ccccc23)cc1 [1-NPN, N-phenyl-1-naphthylamine] | – | – | – | – | – | – | – | – | – | 1.88 | 2.78 | – | – | – | – | – | – | – | – |
| O=C/C=C/c1ccccc1 [Cinnamaldehyde] | – | – | – | – | – | – | – | low-afﬁnity or non-afﬁnity | – | – | – | 46 | 30 | 64 | 9 | 6.6 | good afﬁnity | 36 | good affinity |
| C=CCc1ccc(O)c(OC)c1 [Eugenol] | – | – | – | – | – | – | – | low-afﬁnity or non-afﬁnity | – | – | – | > 50 | > 50 | 97 | > 50 | > 50 | no afﬁnity | 57 | good affinity |
| C=C[C@](C)(O)CCC=C(C)C [R-(-)-Linalool] | – | – | – | – | – | – | enhanced affinity | low-afﬁnity or non-afﬁnity | low-afﬁnity or non-afﬁnity | – | – | > 50 | > 50 | 73 | 20 | 14.7 | – | 46 | – |
| CC1=C(/C=C/C(C)=C/C=C/C(C)=C/CO)C(C)(C)CCC1 [Retinol] | > 50 | > 50 | – | > 50 | > 50 | – | – | low-afﬁnity or non-afﬁnity | – | – | – | – | – | – | – | – | no afﬁnity | – | good affinity |
| CCC/C=C/CO [trans-2-Hexenol] | – | – | 82 | – | – | 51 | enhanced affinity | low-afﬁnity or non-afﬁnity | low-afﬁnity or non-afﬁnity | – | – | > 50 | > 50 | – | 24 | 17.7 | – | – | – |
| CC1=CC[C@@H](C(C)(C)O)CC1 [α-Terpineol] | – | – | – | – | – | – | enhanced affinity | low-afﬁnity or non-afﬁnity | low-afﬁnity or non-afﬁnity | – | – | > 50 | > 50 | 71 | 35.5 | 26.1 | – | 53 | – |
| CC(=O)/C=C/C1=C(C)CCCC1(C)C [β-Ionone] | – | – | – | – | – | – | – | good afﬁnity | – | – | – | 8 | 5.2 | 36 | 15 | 11 | good afﬁnity | 42 | enhanced affinity |
